The results in this text go back to US8003783B2, “17B-hydroxysteroid dehydrogenase inhibitors” (Sterix Limited, priority 2004, dated 2011).

The target in assay [1] is T1, 17β-HSD2 (Homo sapiens, UniProt P37059).
T1 construct: was measured in intact cell monolayers of T47D and MDA-MB-231 breast cancer cells respectively; endogenous in cells; host or cells: MDA-MB-231 human breast cancer cells
T1 sequence (P37059 1-387): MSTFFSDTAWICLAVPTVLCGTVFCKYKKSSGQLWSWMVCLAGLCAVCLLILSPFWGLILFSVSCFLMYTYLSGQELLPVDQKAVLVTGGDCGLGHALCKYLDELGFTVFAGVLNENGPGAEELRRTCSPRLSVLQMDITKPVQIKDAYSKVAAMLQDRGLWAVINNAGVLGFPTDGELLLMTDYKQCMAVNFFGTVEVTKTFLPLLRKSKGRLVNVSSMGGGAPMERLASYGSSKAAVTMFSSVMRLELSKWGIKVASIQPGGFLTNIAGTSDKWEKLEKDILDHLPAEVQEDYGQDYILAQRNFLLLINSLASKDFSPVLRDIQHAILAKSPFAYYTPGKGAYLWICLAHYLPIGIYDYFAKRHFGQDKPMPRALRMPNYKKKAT
Description: 17β-HSD Type II activity in MDA-MB-231 cells (E2→E1). It counts as cell-based.

In assay [2] the target is T2, 17β-HSD1 (Homo sapiens, UniProt P14061).
T2 construct: was measured in intact cell monolayers of T47D and MDA-MB-231 breast cancer cells respectively; endogenous in cells; host or cells: T-47D human breast cancer cells
T2 sequence (P14061 1-328): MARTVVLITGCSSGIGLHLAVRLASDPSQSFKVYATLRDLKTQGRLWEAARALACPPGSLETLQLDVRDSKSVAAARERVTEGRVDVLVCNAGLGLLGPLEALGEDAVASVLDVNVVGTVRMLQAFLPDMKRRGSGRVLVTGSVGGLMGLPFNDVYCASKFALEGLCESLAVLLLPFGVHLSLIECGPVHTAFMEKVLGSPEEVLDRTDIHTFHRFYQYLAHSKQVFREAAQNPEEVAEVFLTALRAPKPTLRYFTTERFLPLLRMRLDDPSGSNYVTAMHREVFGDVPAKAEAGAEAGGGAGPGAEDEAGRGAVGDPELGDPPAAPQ
In words: 17β-HSD Type I activity in T-47D cells (E1→E2). It counts as cell-based. The conditions noted are these: for inhibition at 10 µM: T47D.

[3] abbreviates: 10 μM, MDA-MB-231 cells, E2→E1, read-out: % inhibition of 17β-HSD2 @ 10 μM.
The mark [4] stands for this setting: 10 μM, T-47D cells, E1→E2, read-out: % inhibition of 17β-HSD1 @ 10 μM.
[5] abbreviates: T-47D cells, E1→E2, read-out: IC50 (17β-HSD1).
[6] abbreviates: MDA-MB-231, read-out: % inhibition of 17β-HSD2 @ 10 μM.
[7] abbreviates: read-out: % inhibition of 17β-HSD1 @ 10 μM, 10 μM, T-47D cells, E1→E2.

Each structure is given as a SMILES string. Where “and” joins values, the source holds several entries; their conditions need not be identical. Identical values can stand only once. Like-named read-outs stand apart in the source and are kept apart here.

By inhibition is commonly meant the relative decrease from the control value, in per cent. Take `CC(C)/C=C1\CC2C3CCc4cc(O)ccc4C3CC[C@]2(C)[C@H]1O` (stereo partly shown) [compound 614]: the inhibition at 10 µM in assay [1] (setting [3]) was 7%; in assay [2] (setting [4]), 68%.
As a reminder, the IC50 is the concentration that inhibits the measured activity by half. On to `C[C@]12CCC3c4ccc(O)cc4CCC3C1CC(C(=O)NCc1cccnc1)[C@@H]2O` (stereo partly shown) [compound 798], for which the inhibition at 10 µM was -12% in assay [1] (setting [3]) and 91% in assay [2] (setting [4]). The same compound gave an IC50 in assay [2] of 510 nM.
On to `C[C@]12CCC3c4ccc(O)cc4CCC3C1CC(Cc1ccccn1)[C@@H]2O` (stereo partly shown) [compound 567, 13-Methyl-16-pyridin-2-ylmethyl-7,8,9,11,12,13,14,15,16,17-decahydro-6H-cyclopenta[□]phenanthrene-3-17-diol], for which the values for the inhibition at 10 µM in assay [1] (setting [3]) and in assay [2] (setting [4]) were 11% and 88%, respectively.
Regarding `C[C@]12CCC3c4ccc(O)cc4CCC3C1CC(=N/O)/C2=N\O` (stereo partly shown) [compound 338], the inhibition at 10 µM is -2% in assay [1] (setting [3]) and 55% in assay [2] (setting [4]).
With `COCCn1ncc2c1[C@@]1(C)CCC3c4ccc(O)cc4CCC3C1C2` (stereo partly shown) [compound 809], the inhibition at 10 µM in assay [1] (setting [3]) stood at 55%; in assay [2] (setting [4]) it was 83%.
The matching figures for `COC(=O)Cn1ncc2c1[C@@]1(C)CCC3c4ccc(O)cc4CCC3C1C2` (stereo partly shown) [compound 807]: 30% and 79%.
The matching figures for `C[C@]12CCC3c4ccc(O)cc4CCC3C1Cc1c2n[nH]c1C(=O)O` (stereo partly shown) [compound 783]: -6% and 32%.
As to `C[C@]12CCC3c4ccc(OS(N)(=O)=O)cc4CCC3C1CC(C#N)C2=O` (stereo partly shown) [compound 209], the inhibition at 10 µM in assay [1] (setting [3]) came out at 18%; in assay [2] (setting [4]), 71%. Also, the “% inhibition of 17β-HSD1 @ 10 μM” value in assay [2] (10 μM, T-47D cells, E1→E2) was found to be 73%. Moreover, the IC50 in assay [2] (setting [5]) amounted to 10000 nM.
As to `CN1CCN(C(=O)C2CC3C4CCc5cc(O)ccc5C4CC[C@]3(C)[C@H]2O)CC1` (stereo partly shown) [compound 799], the inhibition at 10 µM in assay [1] (setting [3]) is -16%; in assay [2] (setting [4]), 74%.
The matching figures for `C[C@]12CCC3c4ccc(O)cc4CCC3C1CC(C(=O)O)[C@@H]2O` (stereo partly shown) [compound 611]: 4% and 39%.
The matching figures for `C[C@]12CCC3c4ccc(O)cc4CCC3C1C/C(=C\c1cccnc1)[C@@H]2O` (stereo partly shown) [compound 323]: 43% and 52%.
The matching figures for `CC(C)/C=C1\CC2C3CCc4cc(O)ccc4C3CC[C@]2(C)C1=O` (stereo partly shown) [compound 571]: 18% and 71%.
Turning to `C[C@]12CCC3c4ccc(O)cc4CCC3C1CC(CC(=O)NCC1CCCO1)[C@@H]2O` (stereo partly shown) [compound 668], the inhibition at 10 µM in assay [1] (setting [3]) amounted to 25%; in assay [2] (setting [4]) it was 63%.
Take `CC(C)NC(=O)CC1CC2C3CCc4cc(O)ccc4C3CC[C@]2(C)C1=O` (stereo partly shown) [compound 743]: the inhibition at 10 µM worked out at 6% in assay [1] (setting [3]) and 75% in assay [2] (setting [4]).
The matching figures for `CCN(C)C(=O)c1[nH]nc2c1CC1C3CCc4cc(O)ccc4C3CC[C@]21C` (stereo partly shown) [compound 894]: 6% and 88%.
The matching figures for `C[C@]12CCC3c4ccc(OS(N)(=O)=O)cc4CCC3C1C/C(=C\c1ccccc1)C2=O` (stereo partly shown) [compound 314]: 1% and -1%.
Take `C[C@]12CCC3c4ccc(O)cc4CCC3C1C/C(=C(/O)C(F)(F)F)C2=O` (stereo partly shown) [compound 946]: the inhibition at 10 µM is -1.5% in assay [1] (setting [6]) and 69% in assay [2] (setting [7]). Also, the “% inhibition of 17β-HSD1 @ 10 μM” value in assay [2] (10 μM, T-47D cells, E1→E2) worked out at 87%.
On to `C[C@]12CCC3c4ccc(O)cc4CCC3C1CC(C(=O)NCc1ccncc1)[C@@H]2O` (stereo partly shown) [compound 845], for which the values for the inhibition at 10 µM in assay [1] (setting [3]) and in assay [2] (setting [4]) were 2.5% and 87%, respectively.
The matching figures for `COc1cc(/C=C2\CC3C4CCc5cc(O)ccc5C4CC[C@]3(C)C2=O)cc(OC)c1OC` (stereo partly shown) [compound 328]: -12% and 24%.
`C[C@]12CCC3c4ccc(O)cc4CCC3C1Cc1c2n[nH]c1C(=O)NCc1ccccn1` (stereo partly shown) [compound 915]: the inhibition at 10 µM in assay [1] (setting [6]) amounted to 9%; in assay [2] (setting [7]), 93%. In addition, in assay [2] (setting [5]), the IC50 came to 880 nM.
Turning to `C[C@]12CCC3c4ccc(O)cc4C(=O)CC3C1C/C(=C/O)C2=O` (stereo partly shown) [compound 784], the inhibition at 10 µM is -7% in assay [1] (setting [3]) and 97% in assay [2] (setting [4]). Moreover, the IC50 in assay [2] (setting [5]) was 700 nM.
In the case of `COc1cc(/C=C2\CC3C4CCc5cc(O)ccc5C4CC[C@]3(C)[C@H]2O)cc(OC)c1OC` (stereo partly shown) [compound 329], the inhibition at 10 µM in assay [1] (setting [3]) amounted to 3%. Besides, the “% inhibition of 17β-HSD1 @ 10 μM” value in assay [2] (10 μM, T-47D cells, E1→E2) was 63% and 33%.
In the case of `CCO/C=C1/CC2C3CC(=O)c4cc(O)ccc4C3CC[C@]2(C)C1=O` (stereo partly shown) [compound 749], the inhibition at 10 µM came out at 8% in assay [1] (setting [3]) and 85% in assay [2] (setting [4]).
The matching figures for `C[C@]12CCC3c4ccc(O)cc4CCC3C1CC(Cc1cccnc1)[C@@H]2O` (stereo in doubt) [compound 542, 13-Methyl-16-pyridin-3-ylmethyl-7,8,9,11,12,13,14,15,16,17-decahydro-6H-cyclopenta[a]phenanthrene-3,17-diol]: 11% and 87%.
The matching figures for `COc1cc(/C=C2\CC3C4CCc5cc(OS(N)(=O)=O)ccc5C4CC[C@]3(C)[C@H]2O)cc(OC)c1OC` (stereo partly shown) [compound 693]: 10% and 13%.
Consider `Cn1cc2c(n1)[C@@]1(C)CCC3c4ccc(O)cc4CCC3C1C2` (stereo partly shown) [compound 785], for which the values for the inhibition at 10 µM in assay [1] (setting [6]) and in assay [2] (setting [7]) were 24% and 94%, respectively. In addition, the IC50 in assay [2] (setting [5]) amounted to 2750 nM.
The matching figures for `C[C@]12CCC3c4ccc(O)cc4CCC3C1Cc1c2n[nH]c1C(=O)NCCc1cccnc1` (stereo partly shown) [compound 916]: 3%, 98.5% and 300 nM.
With `C[C@]12CCC3c4ccc(O)cc4CCC3C1Cc1cn(CCC#N)nc12` (stereo partly shown) [compound 921], the inhibition at 10 µM in assay [1] (setting [3]) was determined as 44%; in assay [2] (setting [4]) it was 95%. In assay [2] (setting [5]), the IC50 stood at 730 nM.
As to `C[C@]12CCC3c4ccc(O)cc4CCC3C1CC(CC(=O)Nc1nccs1)C2=O` (stereo partly shown) [compound 746], the inhibition at 10 µM in assay [1] (setting [3]) was 16%; in assay [2] (setting [4]) it was 30%.
The matching figures for `C[C@]12CCC3c4ccc(O)cc4CCC3C1Cc1c2n[nH]c1C(F)(F)F` (stereo partly shown) [compound 949]: 36% and 75%.
Consider `C[C@]12CCC3c4ccc(O)cc4/C(=N\O)CC3C1CC/C2=N\O` (stereo partly shown) [compound 454], for which the inhibition at 10 µM in assay [1] (setting [3]) amounted to 27%. Moreover, the IC50 in assay [2] (setting [5]) was found to be 1900 nM.
Turning to `COCCNC(=O)CC1CC2C3CCc4cc(O)ccc4C3CC[C@]2(C)C1=O` (stereo partly shown) [compound 689], the inhibition at 10 µM in assay [1] (setting [3]) was determined as 8%; in assay [2] (setting [4]) it was 53%.
Regarding `CN(C)c1ccc(/C=C2\CC3C4CCc5cc(O)ccc5C4CC[C@]3(C)[C@H]2O)cc1` (stereo in doubt) [compound 511, 16-(4-Dimethylamino-benzylidene)-13-methyl-7,8,9,11,12,13,14,15,16,17-decahydro-6H-cyclopenta[a]phenanthrene-3,17-diol], the inhibition at 10 µM in assay [1] (setting [3]) was 81%; in assay [2] (setting [4]) it was 72%. In assay [1] (MDA-MB-231 cells, E2→E1), the IC50 was 5400 nM.
For the compound `CC(C)NC(=O)CC1CC2C3CCc4cc(O)ccc4C3CC[C@]2(C)[C@H]1O` (stereo partly shown) [compound 773], the values for the inhibition at 10 µM in assay [1] (setting [3]) and in assay [2] (setting [4]) were 11% and 67%, respectively.
With `C[C@]12CCC3c4ccc(O)cc4CCC3C1CC(CC(=O)NCCc1ccccn1)C2=O` (stereo partly shown) [compound 691], the results for the inhibition at 10 µM in assay [1] (setting [3]) and in assay [2] (setting [4]) were 14% and 58%, respectively.
Consider `Cn1ncc2c1[C@@]1(C)CCC3c4ccc(O)cc4CCC3C1C2` (stereo partly shown) [compound 786], for which the inhibition at 10 µM in assay [1] (setting [6]) is 32%; in assay [2] (setting [7]), 43%.
Turning to `C[C@]12CCC3c4ccc(OS(N)(=O)=O)cc4CCC3C1C/C(=N/O)C2=O` (stereo partly shown) [compound 337], the inhibition at 10 µM in assay [1] (setting [3]) came out at 8%; in assay [2] (setting [4]), 47%.
The matching figures for `C[C@]12CCC3c4ccc(O)cc4CCC3C1Cc1c2n[nH]c1O` (stereo partly shown) [compound 820, 6a-Methyl-4b,5,6,6a,8,10,10a,10b,11,12-decahydro-7,8-diaza-pentaleno[2,1-a]phenanthrene-2,9-diol]: 7% and 86%.
The matching figures for `CCN(CC)C(=O)CC1CC2C3CCc4cc(O)ccc4C3CC[C@]2(C)[C@H]1O` (stereo partly shown) [compound 772]: 14% and 79%.
